From patent US9260418B2, “Pyranyl aryl methyl benzoquinolinone M1 receptor positive allosteric modulators” (Merck Sharp & Dohme Corp., priority 2009, dated 2016)

Molecular target: T1, acetylcholine muscarinic M1 receptor (Homo sapiens, UniProt P11229)
T1 construct: expressed in transfected cells; host or cells: CHOnfat cells (CHO), under Geneticin selection; b382 calls them CHOK1/hM1
T1 sequence (P11229 1-460): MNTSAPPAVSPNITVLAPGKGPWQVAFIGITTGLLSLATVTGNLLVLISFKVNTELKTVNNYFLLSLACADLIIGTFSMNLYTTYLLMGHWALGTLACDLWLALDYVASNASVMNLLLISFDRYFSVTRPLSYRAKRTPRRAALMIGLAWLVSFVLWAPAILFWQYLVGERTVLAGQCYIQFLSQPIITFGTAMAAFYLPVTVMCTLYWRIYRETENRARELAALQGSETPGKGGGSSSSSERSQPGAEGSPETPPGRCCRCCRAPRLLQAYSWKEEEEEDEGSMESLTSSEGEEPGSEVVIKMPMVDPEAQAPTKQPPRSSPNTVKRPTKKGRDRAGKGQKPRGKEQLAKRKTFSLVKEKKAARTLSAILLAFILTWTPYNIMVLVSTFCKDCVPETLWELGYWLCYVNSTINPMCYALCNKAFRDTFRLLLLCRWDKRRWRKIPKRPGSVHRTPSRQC
Assay: muscarinic FLIPR intracellular calcium assay, potentiation of EC20 acetylcholine in CHOnfat/hM1 cells
Format: cell-based
Details: inflection point calculated from FLIPR values, 4 min preincubation, then EC20 acetylcholine (3 nM final), read-out: IP Value
Method: The assay studies the effect of one or several concentrations of test compounds on basal or acetylcholine-stimulated Ca^2+ levels using FLIPR.
Compounds are prepared and subjected to a preincubation period of 4 min. Thereafter, a single EC20 concentration of acetylcholine is added to each well (3 nM final). The intracellular Ca^2+ level of each sample is measured and compared to an acetylcholine control to determine any modulatory activity.
Cells: CHOnfat/hM1, hM2, hM3 or hM4 cells are plated 24 hr before the assay at a density of 18,000 cells/well (100 μL) in a 384 well plate. CHOnfat/hM1 and CHOnfat/hM3 Growth Medium: 90% DMEM (Hi Glucose); 10% HI FBS; 2 mM L-glutamine; 0.1 mM NEAA; Pen-Strep; and 1 mg/ml Geneticin, are added. For M2Gqi5CHOnfat and M4Gqi5CHOnfat cells, an additional 600 ug/ml hygromycin is added.
Equipment: 384 well plate, 120 μL addition plate; 96-well Whatman 2 ml Uniplate Incubator, 37° C., 5% CO2; Skatron EMBLA-384 Plate Washer; Multimek Pipetting System; Genesis Freedom 200 System; Mosquito System; Temo Nanolitre Pipetting System; and FLIPR^384 Fluorometric Imaging Plate Reader System are used.
Buffers. Assay Buffer: Hanks Balanced Salt Solution, with 20 mM Hepes, 2.5 mM Probenecid (Sigma P-8761) first dissolved in 1 N NaOH, 1% Bovine Serum Albumin (Sigma A-9647). Dye Loading Buffer: Assay Buffer plus 1% Fetal Bovine Serum and Fluo-4AM/Pluronic Acid Mixture. 2 mM Fluo-4AM ester stock in DMSO (Molecular Probes F-14202) Concentration of 2 μM in buffer for a final concentration of 1 μM in Assay. 20% Pluronic Acid Solution stock, with concentration of 0.04% in Buffer, 0.02% in Assay.
65 μL of 2 mM Fluo-4AM are mixed with 130 μL of 20% Pluronic Acid. The resulting solution and 650 μL FBS is added to the assay buffer for a total volume of 65 mL. Positive Controls: 4-Br-A23187: 10 mM in DMSO; final concentration 10 μM. Acetylcholine: 10 mM in water, working stock at both 20 μM and 30 μM in assay buffer, final concentration of 10 μM. This is used to check the maximum stimulation of the CHOK1/hM1 cells. 20 μM (2×) acetylcholine is added in the preincubation part of the assay, and the 30 μM (3×) stock is added in the second part. (EC20)Acetylcholine: 10 mM in water, working stock of 9 nM (3×), and final concentration in assay is 3 nM. This is used after the preincubation with test compounds. Addition of the EC20 Acetylcholine to each well with a test compound will ascertain any modulator activity. 24 wells contain 3 nM Acetylcholine alone as a control.
Screening Plate: Compounds are titrated in 96-well plates (columns 2-11), 100% DMSO, started at a concentration of 15 mM (150× stock concentration), and 3-fold serial dilutions using Genesis Freedom200 System. Four 96-well plates are combined into a 384-well plate using Mosquito Nanolitre Pipetting System by transferring 1 μl of serial diluted compounds to each well, and 1 mM acetylcholine (100× stock concentration) were added as a control. Using Temo, 49 μl assay buffer is added to each well of the 384-well plate right before assay.
In a 96-well Whatman 2 ml Uniplate, 9 nM Acetylcholine (3×) is pipetted into wells corresponding to the screening compounds, and into control wells. The 30 μM acetylcholine control (3×) is added into control wells, and the 3× agonist plate is transferred into a 384 well plate.
Cells are washed three times with 100 μL of buffer, leaving 30 μL of buffer in each well. Using Multimek, 30 μL of Dye Loading Buffer is added into each well and incubated at 37° C., 5% CO2 for up to one hr.
After 60 min, the cells are washed three times with 100 μL of buffer, leaving 30 μL of buffer in each well. The cell plate, screening plate, and agonist addition plates are placed on the platform in the FLIPR and the door closed. A signal test to check background fluorescence and basal fluorescence signal is performed. Laser intensity is adjusted if necessary. […]

SMILES | EC50
O=c1c2cc(Cc3cc[n+]([O-])c(Cl)c3)c3ccccc3c2ncn1[C@H]1CCOC[C@@H]1O [Example 24, 6-[(2-Chloro-1-oxidopyridin-4-yl)methyl]-3-[(3R,4S)-3-hydroxytetrahydro-2H-pyran-4-yl]benzo[h]quinazolin-4(3H)-one] | 58 nM
O=c1c2cc(Cc3ccnc(F)c3)c3ccccc3c2ncn1[C@H]1CCOC[C@@H]1O [Example 25, 6-[(2-Fluoropyridin-4-yl)methyl]-3-[(3R,4S)-3-hydroxytetrahydro-2H-pyran-4-yl]benzo[h]quinazolin-4(3H)-one] | 15 nM
O=c1c2cc(Cc3ccnc(OC(F)F)c3)c3ccccc3c2ncn1[C@H]1CCOC[C@@H]1O [Example 30, 6-{[2-(Difluoromethoxy)pyridine-4-yl]methyl}-3-[(3R,4S)-3-hydroxytetrahydro-2H-pyran-4-yl]benzo[h]quinazolin-4(3H)-one] | 77 nM
Cn1cc(Br)c2c(Cc3cc4c(=O)n([C@H]5CCOC[C@@H]5O)cnc4c4ccccc34)ccnc21 [Example 31, 6-[(3-Bromo-1-methyl-1H-pyrrolo[2,3-b]pyridine-4-yl)methyl]-3-[(3R,4S)-3-hydroxytetrahydro-2H-pyran-4-yl]benzo[h]quinazolin-4(3H)-one] | 275 nM
CCn1ccc2c(Cc3cc4c(=O)n([C@H]5CCOC[C@@H]5O)cnc4c4ccccc34)ccnc21 [Example 32, 6-[(1-Ethyl-1H-pyrrolo[2,3-b]pyrdin-4-yl)methyl]-3-[(3R,4S)-3-hydroxytetrahydro-2H-pyran-4-yl]benzo[h]quinazolin-4(3H)-one] | 32 nM
O=c1c2cc(Cc3ccc(Cl)nc3)c3ccccc3c2ncn1[C@H]1CCSC[C@@H]1O [Example 33, 6-[(6-Chloropyridin-3-yl)methyl]-3-[(3R,4S)-3-hydroxytetrahydro-2H-thiopyran-4-yl]benzo[h]quinazolin-4(3H)-one] | 10 nM
Cc1ccc(-c2ccc(Cc3cc4c(=O)n([C@H]5COCC[C@@H]5O)cnc4c4ccccc34)cn2)cn1 [Example 34, 3-[(3S,4S)-4-Hydroxytetrahydro-2H-pyran-3-yl]-6-[(6′-methyl-2,3-bipyridin-5-yl)methyl]benzo[h]quinazolin-4(3H)-one] | 7.1 nM
O=c1c2cc(Cc3ccc(Cl)nc3)c3ccccc3c2ncn1C1CCNCC1 [Example 37, 6-[(6-Chloropyridin-3-yl)methyl]-3-piperidin-4-ylbenzo[h]quinazolin-4(3H)-one] | 4800 nM

The remaining lines, values ahead:

EC50 | SMILES
45 nM | COC(C)(C)c1ccc(Cc2cc3c(=O)n([C@H]4CCOC[C@@H]4O)cnc3c3ccccc23)cn1 [Example 20, 3-[(3R,4S)-3-Hydroxytetrahydro-2H-pyran-4-yl]-6-{[6-(1-methoxy-1-methylethyl)pyridine-3-yl]methyl}benzo[h]quinazolin-4(3H)-one]
28 nM | O=c1c2cc(Cc3ccc(CO)nc3)c3ccccc3c2ncn1[C@H]1CCOC[C@@H]1O [Example 21, 6-{[6-(Hydroxymethyl)pyridine-3-yl]methyl}-[(3R,4S)-3-hydroxytetrahydro-2H-pyran-4-yl]benzo[h]quinazolin-4(3H)-one]
23 nM | O=c1c2cc(Cc3ccc(CF)nc3)c3ccccc3c2ncn1[C@H]1CCOC[C@@H]1O [Example 22, 6-{[6-(Fluoromethyl)pyridine-3-yl]methyl}-3-[(3R,4S)-3-hydroxytetrahydro-2H-pyran-4-yl]benzo[h]quinazolin-4(3H)-one]
14 nM | O=c1c2cc(Cc3ccc(C(F)F)nc3)c3ccccc3c2ncn1[C@H]1CCOC[C@@H]1O [Example 23, 6-{[6-(Difluoromethyl)pyridine-3-yl]methyl}-3-[(3R,4S)-3-hydroxytetrahydro-2H-pyran-4-yl]benzo[h]quinazolin-4(3H)-one]
34 nM | COc1cc(Cc2cc3c(=O)n([C@H]4CCOC[C@@H]4O)cnc3c3ccccc23)ccn1 [Example 26, 3-[(3R,4S)-3-Hydroxytetrahydro-2H-pyran-4-yl]-6-[(2-methoxypyridin-4-yl)methyl]benzo[h]quinazolin-4(3H)-one]
27 nM | CCOc1ccc(Cc2cc3c(=O)n([C@H]4CCOC[C@@H]4O)cnc3c3ccccc23)cn1 [Example 27, 6-[(6-Ethyoxypyridin-3-yl)methyl]-3-[(3R,4S)-3-hydroxytetrahydro-2H-pyran-4-yl]benzo[h]quinazolin-4(3H)-one]
27 nM | O=c1c2cc(Cc3ccc(O)nc3)c3ccccc3c2ncn1[C@H]1CCOC[C@@H]1O [Example 28, 6-[(6-Hydroxypyridin-3-yl)methyl]-3-[(3R,4S)-3-hydroxytetrahydro-2H-pyran-4-yl]benzo[h]quinazolin-4(3H)-one]
39 nM | O=c1c2cc(Cc3ccc(OC(F)F)nc3)c3ccccc3c2ncn1[C@H]1CCOC[C@@H]1O [Example 29, 6-{[6-(Difluoromethoxy)pyridine-3-yl]methyl}-3-[(3R,4S)-3-hydroxytetrahydro-2H-pyran-4-yl]benzo[h]quinazolin-4(3H)-one]
